Values quoted from earlier work in article PMC11500008, “Novel quinazolin-4-one based derivatives bearing 1,2,3-triazole and glycoside moieties as potential cytotoxic agents through dual EGFR and VEGFR-2 inhibitory activity” (Scientific Reports, 2024).

Tested on: MCF-7 cell line
Design: method as in PMID 37453330
Conditions: cellular activity; read-out: IC50 against MCF-7 cell line; cited from earlier work

In the case of `COc1ccc(Cc2nnc(COc3ncnc4ccccc34)o2)cc1OC` [IV], the IC50 is given as 230 nM.
